Measurements: patent US20230398130A1, “METHODS AND COMPOSITIONS FOR DIFFERENTIATING STEM CELLS” (Massachusetts Institute of Technology, priority 2020, published 2023)

Legend:
ISC-enriched organoids [1] = assay: Primary screen, 384-well 2.5-D organoid differentiation (ENR+CD, 6 days): carbachol-induced lysozyme secretion (LYZ.S); type: cell-based, murine; conditions: primary screen, FC vs plate median
Description: (§1) High-throughput screening.

ISC-enriched organoids [2] = assay: Primary screen, 384-well 2.5-D organoid differentiation (ENR+CD, 6 days, Target Selective Inhibitor Library, vs whole-plate median): ATP (CellTiter-Glo 3D, CTG); conditions: for Dose.FC.CTG: primary screen, FC vs plate median; for Z.CTG: standard z score of FC
ISC-enriched organoids [3] = assay: Primary screen, 384-well 2.5-D organoid differentiation (ENR+CD, 6 days): basal lysozyme secretion (LYZ.NS); type: cell-based, murine; conditions: for Dose.FC.LYZ.NS: primary screen, FC vs plate median; for Z.LYZ.NS: standard z score of FC
Description: as §1

Row | Compound | Dose.FC.LYZ.S (ISC-enriched organoids [1]; Dose 0.08 uM) [log 2 fold change] | Dose.FC.LYZ.S (ISC-enriched organoids [1]; Dose 0.40 uM) [log 2 fold change] | Dose.FC.LYZ.S (ISC-enriched organoids [1]; Dose 2.00 uM) [log 2 fold change] | Dose.FC.LYZ.S (ISC-enriched organoids [1]; Dose 10.00 uM) [log 2 fold change] | Dose.FC.CTG (ISC-enriched organoids [2]; Dose 0.08 uM) [log 2 fold change] | Z.CTG (ISC-enriched organoids [2]; Dose 0.08 uM) | Dose.FC.CTG (ISC-enriched organoids [2]; Dose 0.40 uM) [log 2 fold change] | Z.CTG (ISC-enriched organoids [2]; Dose 0.40 uM) | Dose.FC.CTG (ISC-enriched organoids [2]; Dose 2.00 uM) [log 2 fold change] | Z.CTG (ISC-enriched organoids [2]; Dose 2.00 uM) | Dose.FC.CTG (ISC-enriched organoids [2]; Dose 10.00 uM) [log 2 fold change] | Z.CTG (ISC-enriched organoids [2]; Dose 10.00 uM) | Dose.FC.LYZ.NS (ISC-enriched organoids [3]; Dose 0.08 uM) [log 2 fold change] | Z.LYZ.NS (ISC-enriched organoids [3]; Dose 0.08 uM) | Dose.FC.LYZ.NS (ISC-enriched organoids [3]; Dose 0.40 uM) [log 2 fold change] | Z.LYZ.NS (ISC-enriched organoids [3]; Dose 0.40 uM) | Dose.FC.LYZ.NS (ISC-enriched organoids [3]; Dose 2.00 uM) [log 2 fold change] | Z.LYZ.NS (ISC-enriched organoids [3]; Dose 2.00 uM) | Dose.FC.LYZ.NS (ISC-enriched organoids [3]; Dose 10.00 uM) [log 2 fold change] | Z.LYZ.NS (ISC-enriched organoids [3]; Dose 10.00 uM)
1 | C[C@]1(O)C[C@@H](c2nc(-c3ccc4ccc(-c5ccccc5)nc4c3)c3c(N)nccn32)C1 [OSI-906 (Linsitinib)] | −0.026 | −0.119 | −0.288 | −0.328 | −0.324 | −0.775 | −0.158 | −0.377 | −0.277 | −0.661 | −0.391 | −0.934 | 0.013 | 0.110 | −0.093 | −0.806 | −0.216 | −1.882 | −0.229 | −1.996
2 | NCC(=O)Nc1ccc(-n2nc(C(F)(F)F)cc2-c2ccc3c(ccc4ccccc43)c2)cc1 [OSU-03012 (AR-12)] | 0.126 | 0.113 | 0.060 | −0.128 | 0.205 | 0.491 | 0.114 | 0.272 | 0.233 | 0.556 | 0.078 | 0.185 | 0.087 | 0.755 | 0.033 | 0.285 | 0.053 | 0.460 | −0.049 | −0.423
3 | CC(C)(F)C[C@H](N[C@@H](c1ccc(-c2ccc(S(C)(=O)=O)cc2)cc1)C(F)(F)F)C(=O)NC1(C#N)CC1 [Odanacatib (MK-0822)] | 0.091 | 0.170 | 0.036 | −0.074 | 0.119 | 0.285 | 0.208 | 0.496 | −0.008 | −0.020 | 0.006 | 0.015 | 0.086 | 0.752 | 0.162 | 1.409 | 0.024 | 0.212 | −0.035 | −0.307
4 | CC[C@@H]1/C=C/C=C/C[C@H](C)[C@H](O)[C@](C)(O)C(=O)[C@H](C)[C@@H](O)[C@H](C)C(=O)[C@H](C)[C@@H](O)[C@H](C)/C=C/C(=O)O[C@H]2[C@@H](C)[C@@H](CC1)O[C@@]1(CC[C@@H](C)[C@@H](C[C@H](C)O)O1)[C@@H]2C [Oligomycin A] | −0.243 | −0.274 | −0.269 | −0.288 | −0.662 | −1.581 | −0.706 | −1.685 | −0.946 | −2.261 | −1.244 | −2.972 | −0.204 | −1.778 | −0.231 | −2.013 | −0.213 | −1.857 | −0.223 | −1.943
5 | CCc1c(C(=O)NCCc2ccc(N3CCCCC3)cc2)[nH]c2ccc(Cl)cc12 [Org 27569] | 0.174 | 0.032 | 0.059 | 0.001 | 0.278 | 0.663 | 0.072 | 0.173 | 0.362 | 0.865 | 0.270 | 0.646 | 0.122 | 1.060 | 0.051 | 0.445 | 0.078 | 0.683 | 0.029 | 0.248
6 | CC(=O)c1cc([N+](=O)[O-])c(Sc2ccc(F)cc2F)s1 [P22077] | −0.182 | 0.065 | −0.007 | −0.063 | −0.216 | −0.516 | 0.049 | 0.117 | −0.134 | −0.320 | −0.130 | −0.311 | 0.039 | 0.338 | −0.005 | −0.041 | 0.028 | 0.248 | −0.056 | −0.487
7 | C=CCc1cccc(/C=N/NC(=O)CN2CCN(Cc3ccccc3)CC2)c1O [PAC-1] | 0.128 | 0.059 | −0.006 | 0.092 | 0.095 | 0.228 | 0.113 | 0.270 | −0.241 | −0.576 | 0.002 | 0.004 | 0.157 | 1.365 | 0.053 | 0.457 | 0.126 | 1.094 | 0.068 | 0.596
8 | O=C(NOCC1CC1)c1ccc(F)c(F)c1Nc1ccc(I)cc1Cl [PD184352 (CI-1040)] | −0.019 | −0.047 | −0.178 | −0.239 | 0.366 | 0.874 | 0.261 | 0.624 | −0.212 | −0.506 | −0.796 | −1.901 | −0.019 | −0.162 | −0.053 | −0.458 | −0.135 | −1.176 | −0.116 | −1.011
